Compared with `Cc1c(C#N)c(C(F)(F)F)nn1-c1c(Cl)cc(C(F)(F)F)cc1Cl`, `Cn1nc(-c2c(Cl)cc(C(F)(F)F)cc2Cl)cc1N` is higher in melting point: 90 to 92 °C for the first, 161 to 163 °C for the second.

First: CN(C)c1ccc(NC(=O)N(Cc2ccco2)C[C@H]2CC[C@H](CN(Cc3ccco3)C(=O)Nc3ccc(N(C)C)cc3)CC2)cc1
Second: O=C(O)c1ccc(OCCCNc2ccc(NCc3ccc4c(c3)OCCO4)cc2)cc1
The melting point of the first is lower: 129 to 132 °C for the first, 246 to 247 °C for the second.

Compared with `C=CC[C@H]1C(=O)N[C@H]2CCN(C(=O)OCc3ccccc3)[C@@H]21` (relative stereo), `O=C1NC(=O)C2(C(=O)N(Cc3ccc(Cl)c(Cl)c3)c3ccccc32)N1C(=O)OCc1ccccc1` (configuration not stated) is higher in melting point: 160 °C for the first, 215 to 217 °C for the second.

Compared with `CCCCCCCCCCCCc1ccc(S(=O)(=O)Nc2nnc(CCCCCNC)s2)cc1`, `Cc1oc(-c2ccccc2)nc1COc1ccc(CCCCCO)cc1` is lower in melting point: 158 to 160 °C for the first, 78 to 79 °C for the second.

Compared with `O=Cc1ccc2c(c1)CC[C@H](Cc1ccc(O)cc1)O2`, `Cc1cc(C=O)cc(C=O)c1OCCCC(c1ccc(F)cc1)c1ccc(F)cc1` is lower in melting point: 134 to 135 °C for the first, 97 °C for the second.

First: N#CC(C(=O)c1nn(-c2ccccc2)c2c1CSc1ccccc1-2)C(=S)Nc1ccccc1 (configuration not stated)
Second: CC(CN=C(c1ccccc1)c1ccccc1)N=C(c1ccccc1)c1ccccc1 (configuration not stated)
The melting point of the first is higher: 167 to 170 °C for the first, 89 to 90 °C for the second.

Compared with `O=C(c1ccc(F)cc1)N1CCN(CC(O)Cn2c3ccccc3c3ccccc32)CC1` (configuration not stated), `CCOC(=O)COc1ccc(C(=O)c2ccoc2)c2ccccc12` is higher in melting point: 70 to 80 °C for the first, 103 °C for the second.

First: CC(C)c1ccc(Cc2c(N)nc(SCCN3CCNCC3)nc2N)cc1
Second: CCCCCN1C(=O)C2CC(c3ccc(N)cc3)(C2)C1=O
The melting point of the first is lower: 63 to 64 °C for the first, 92 to 94 °C for the second.

First: Cn1c(COc2ccc(CC3SC(=O)NC3=O)cc2)nc2ccc(Oc3cccc(NC(=O)NC45CC6CC(CC(C6)C4)C5)c3)cc21 (configuration not stated)
Second: CC1=NC(NC(=O)Nc2cccc(Br)c2)C(=O)N(CC(=O)N2CC3CCC(CC3)C2)c2c(C)cccc21 (configuration not stated)
The melting point of the first is higher: 227 to 231 °C for the first, 168 to 171 °C for the second.

First: CN1CCN(c2cccc3c2CC(C(=O)Nc2ccc(N4CCOCC4)cc2)C3)CC1 (configuration not stated)
Second: CC(=O)NC[C@H]1CN(c2ccc(N3CCC(=C(C#N)c4cccs4)CC3)c(F)c2)C(=O)O1
The melting point of the first is lower: 248 to 249 °C for the first, 260 to 263 °C for the second.

Compared with `COc1cc(C)cc(OC)c1NC(=O)CNC(=O)OC(C)(C)C`, `CCOC(=O)c1c(N)[nH]c2cc(OC)c(OC)cc12` is higher in melting point: 146 °C for the first, 164 to 166 °C for the second.

First: CC(C)(Sc1nnnn1-c1ccccc1)c1ccc([N+](=O)[O-])cc1
Second: O=[N+]([O-])c1cn(-c2cccnc2)nc1-c1ccccc1
The melting point of the first is lower: 122 °C for the first, 144 to 146 °C for the second.

First: CC(C)CC(=O)OC1(C(=O)CO)CCC2C3CC(C)C4=CC(=O)C=CC4(C)C3C(O)CC21C (configuration not stated)
Second: CC(=O)OC1CSC(Oc2cccc(-c3ccc(C)cn3)c2)C(OC(C)=O)C1OC(C)=O (configuration not stated)
The melting point of the first is higher: 164 °C for the first, 140 °C for the second.

First: O=C(O)c1cc(F)cc(-c2ccc(F)c3cc(Cc4cccc(C(F)(F)F)c4)sc23)c1
Second: CC1(c2ccc(OCc3ccccc3)c(Br)c2)C(=O)Nc2cc(Cl)cc(Cl)c2C1=O (configuration not stated)
The melting point of the first is lower: 169 to 170 °C for the first, 189 to 190 °C for the second.

First: CCCCc1nc(CCCC)n(Cc2ccc(-c3ccccc3-c3nnn[nH]3)cn2)n1
Second: CCCCc1ncc(C=C2C(=O)Nc3ccc(Cl)cc32)n1Cc1ccc(C(=O)OC)cc1
The melting point of the first is lower: 136 to 138 °C for the first, 238 to 241 °C for the second.

First: CC(C)N=C(NC(C)C)ON1C(C)(C)CC(O)CC1(C)C
Second: Cc1ccc(COc2cc(C(O)C#Cc3ccc(C(=O)O)cc3)cc3c2C(C)(C)CCC3(C)C)cc1 (configuration not stated)
The melting point of the first is lower: 118 to 123 °C for the first, 219 °C for the second.

First: COc1ccc(OCCCBr)c(C2Sc3ccccc3N(C)C2=O)c1 (single isomer, unassigned; (-))
Second: CN1C(=O)C(C2OC(=O)c3ccccc32)N(C)C(=O)C1Cc1ccccc1 (configuration not stated)
The melting point of the first is lower: 77 to 78 °C for the first, 225 °C for the second.

First: CCCc1c(OCCCSc2cccc(CC(=O)OC)c2F)ccc(C(C)=O)c1O
Second: CCC(CC)N(O)C(=O)Nc1ccc(Cc2ccc(NC(=O)N(O)C(CC)CC)c(Cl)c2)cc1Cl
The melting point of the first is lower: 63 to 65 °C for the first, 172 to 173 °C for the second.

Compared with `O=[N+]([O-])c1cnc(Sc2nc(-c3ccc(Cl)cc3)n[nH]2)s1`, `CC(=O)Oc1cc([N+](=O)[O-])ccc1CN1C(=O)c2ccccc2C1=O` is lower in melting point: 181 to 184 °C for the first, 175 to 178 °C for the second.

First: CC(c1ccccc1)N(C=O)CC#N (single isomer, unassigned; (+))
Second: C#CCNC(=O)/C=C\SC(=O)c1ccccc1
The melting point of the first is lower: 78.9 °C for the first, 131 to 134 °C for the second.

Compared with `COc1ccc2c(C(=O)O)nn(Cc3ccc(Cl)c(Cl)c3)c(=O)c2c1`, `CCOC(=O)C=Cn1c(=O)n2nc(C(=O)OCC)cc2c2cc(OC)ccc21` is lower in melting point: 238 to 240 °C for the first, 153 to 154 °C for the second.

First: COC(=O)c1ccc(CNS(C)(=O)=O)cc1S(=O)(=O)Cl
Second: CC(C)(C)OC(=O)Nc1ccc2ccc(S(C)(=O)=O)cc2c1Br
The melting point of the first is lower: 93 to 94 °C for the first, 166 to 167 °C for the second.

First: COc1ccc(C=CC(=O)c2c(OC)cc(OC)cc2OC(=O)c2ccc(OC)cc2)cc1
Second: COc1cc(OC)c(C2CCN(C)CC2OC(C)=O)c(Oc2cccs2)c1C(C)=O (configuration not stated)
The melting point of the first is lower: 111 to 112 °C for the first, 153 to 154 °C for the second.

First: Cc1nc(C)c2cc(-c3c(Cl)cccc3Cl)c(N)nc2n1
Second: O=C(Cc1c(Br)cnc2c(NC(=O)c3c(Cl)cccc3Cl)cccc12)NCc1ccccn1
The melting point of the first is higher: 239 to 240 °C for the first, 197 to 199 °C for the second.

First: O=C1Nc2cccc(Cl)c2C(=O)N2CC[C@@H]12
Second: O=c1ccn([C@H]2[C@H](O)[C@H](O)CC[C@H]2O)c(=O)[nH]1 (racemic)
The melting point of the first is lower: 225 to 228 °C for the first, 246 °C for the second.

Compared with `CCc1[nH]c(C)c(C(C)=O)c1C`, `CNC(=O)N(C)c1nc2c(s1)C(=O)CC(C)(C)C2` is higher in melting point: 153 to 160 °C for the first, 174 to 175 °C for the second.

First: O=C1NC(=O)C2(CCOc3c([N+](=O)[O-])cc(F)cc32)S1 (configuration not stated)
Second: NC(=O)c1ccc(F)c2c1CC(N(CCC(=O)c1c[nH]c3ccc(F)cc13)C1CCC1)CO2 (configuration not stated)
The melting point of the first is higher: 192 to 194 °C for the first, 139 °C for the second.

Compared with `COc1ccc2cc(C3=C(CC(=O)O)CCCC3=O)ccc2c1Br`, `COc1cc2c(cc1C(F)(F)F)N(C(=O)Nc1ccc(OCc3ccncc3)nc1)CC2` is higher in melting point: 165 to 166 °C for the first, 187 to 189 °C for the second.

First: N#Cc1c(Cl)[nH]c(Cl)c1Cl
Second: OC(C1=NCCN1)(c1ccccc1)c1cccc(Cl)n1 (configuration not stated)
The melting point of the first is higher: over 300 °C for the first, 154 to 156 °C for the second.

Compared with `CCOC(=O)CC1CCC(CCNS(=O)(=O)c2ccc(Br)cc2)CC1` (configuration not stated), `CNS(=O)(=O)c1ccc(C2CCN(c3ccncc3)CC2)cc1` is higher in melting point: 62 °C for the first, 225 to 228 °C for the second.

First: C=C1NC(=O)N(CCCC)C1=O
Second: Nc1nc2ccccc2c2c1ncn2CCCCCS(=O)(=O)c1ccccc1
The melting point of the first is lower: 73 °C for the first, 171 to 172 °C for the second.

First: CCC(n1cncn1)C(O)(Cn1cncn1)c1ccc(Cl)cc1 (configuration not stated)
Second: COc1cccc(-c2ccnc3c(C(N)=O)ncn23)c1
The melting point of the first is lower: 168 to 169 °C for the first, 249 to 252 °C for the second.

First: CN1CCCC1c1ccc(Nc2cc(-c3cc(F)cc(N4CCc5c(sc6c5CCCC6)C4=O)c3CO)cn(C)c2=O)nc1 (configuration not stated)
Second: CC(C)COc1ccccc1C(=N)N
The melting point of the first is higher: 164 to 166 °C for the first, 49 to 51 °C for the second.

Compound `CNCC(O)C1=CNC2C=CC=CC12` (configuration not stated) has a melting point of 117 to 120 °C.

— a melting point compilation (Tetko et al.; mined from patent text by program, amines drawn as free bases though some values may be those of a salt)
